From patent US7972831B2, “Lipases from thermophilic anaerobes” (Novozymes A/S, priority 2004, dated 2011)
Where a name gives a salt, the structure may show the parent alone.

Experiments:
lipase of SEQ ID NO: 2 [1] = assay: Effect of inhibitors on lipase activity; format: biochemical, Thermoanaerobacter thermohydrosulfuricus; conditions: for effect on the activity of the lipase: up to 10 mM; for inactivation of the lipase: 0.1-1 mM
lipase of SEQ ID NO: 4 = assay: Effect of inhibitors on lipase activity; format: biochemical, Caldanaerobacter subterraneus subsp. tengcongensis; conditions: for effect on the activity of the lipase: up to 10 mM; for inactivation of the lipase: 0.1-1 mM
lipase of SEQ ID NO: 2 [2] = assay: Substrate specificity with triacylglycerols; format: biochemical, Thermoanaerobacter thermohydrosulfuricus; conditions: triacylglycerol 10 mM, pH 8.0, 25 h at 70° C.
Method: The lipase of SEQ ID NO: 2 was tested by reaction with various triacylglycerols 10 mM (pH 8.0) as substrates: for 25 h at 70° C. Similar results were obtained with the lipase of SEQ ID NO: 4.

[3] = tested on: lipase from T. thermohydrosulfuricum (SEQ ID NO: 2); assay: Alcoholysis of triacylglycerols (positional specificity towards triglycerides); format: biochemical, Thermoanaerobacter thermohydrosulfuricus; conditions: for DG 1,2- 2,3- / DG 1,3- / FA (fatty acid) / MG 1- 3- / TG (remaining substrate): alcoholysis with ethanol in acetone, 7 h at 65° C.
Method: Alcoholysis of various triacylglycerols catalyzed by the lipase of SEQ ID NO: 2 were tested. All substrates were alcoholyzed by the lipase. […] For other substrates the conversions were above 40%. The lipase catalysed the synthesis of 1,3-diacylglycerides and 1- and 3-monoacylglycerides from triacylglycerides at highest rate. No sn2-monoglyceride was produced. […] With the length of the ester bonds the 2-positional specificity of the protein increased.
The positional specificity of the lipase from T. thermohydrosulfuricum (SEQ ID NO: 2) was tested towards the following triglycerides (TG, triacylglycerols): trilaurin (C12), trimyristin (C14), tripalmitin (C16), tristearin (C18), Triolein (C18:1). Each TG (3 mmol) was dissolved in organic solvent (2 ml acetone) and pre-equilibrated at 65° C. for 15 min, 400 rpm. Dry ethanol (3 mmol) was added and reaction mixture was incubated at 65° C. for 15 min, 400 rpm. Lipase (10% based on TG weight) was added to start reaction. Reaction was carried out in a 4-ml screw-capped vial and the reaction mixture was mixed with magnetic stirrer (400 rpm). Aliquot amount of reaction mixture (20 μl) was periodically withdrawn and diluted with chloroform (80 μl) to appropriate dilution, followed by analysis with latroscan to determine acylglycerol composition.
Changes in glycerides composition of the reaction medium during reaction were quantitatively determined by TLC/FID using latroscan analytical methods (latroscan, latron Laboratories, Inc., Tokyo, Japan). Before analysis, a blank of the chromarod was scanned. After treating chromarod with boric acid (3%) and drying for 5 min, 0.1 μl of the reaction medium (diluted in chloroform at appropriate dilution) is spotted onto the chromarod and the spotted sample was developed for 10 cm in a mixture of benzene:chloroform:acetic acid (50:30:0.5, by vol) for 35 min. After drying, the chromarod in an oven at 110° C. for 5 min, scanning is performed at a hydrogen flow rate of 160 ml/min and an air flow rate of 2.01/min to produce a chromatogram.
The results of the alcoholysis of the triacylglycerols catalysed by the lipase from […] after 7 h reactions time at 65° C. are given below as % of remaining substrate (TG) and % of the following products: fatty acid (FA), diglycerides (DG, with 1,3-DG separated from 1,2- and 2,3-DG), monoglyceride (MG, with 2-MG separated from 1- and 3-MG).

lipase of SEQ ID NO: 2 [4] = assay: Effect of solvents on lipase activity; format: biochemical, Thermoanaerobacter thermohydrosulfuricus; conditions: solvent up to 50% by volume
lipase = assay: Effect of detergent ingredients on lipase activity; format: biochemical; conditions: 1.5 hours at 30° C., up to 10% by weight of compound
Method: The activity of the lipase was tested after incubation for 1.5 hours at 30° C. with up to 10% by weight of various compounds.

lipase of SEQ ID NO: 2 [5] = assay: Substrate specificity for pNP-esters; format: biochemical, Thermoanaerobacter thermohydrosulfuricus; conditions: pNP-ester 1 mM, pH 8.0, 10 min at 70° C.
lipase of SEQ ID NO: 2 [6] = assay: Positional specificity towards monoglycerides; format: biochemical, Thermoanaerobacter thermohydrosulfuricus
[7] = Specific activity of purified lipase; format: biochemical, Thermoanaerobacter thermohydrosulfuricus; conditions: after three-step purification
Method: The lipase solution obtained after hydrophobic interaction chromatography was loaded on a hydroxilapatite column used as a second purification step. The lipase was eluted at the approximate mid-point of the sodium phosphate buffer gradient (220 to 250 mM range). The active fractions were further subjected to gel filtration column. […] The enzyme activity was present in the second major peak. The lipase was purified approximately 133.5-fold over the crude extract with a 10.2% yield. The specific activity of the purified lipase was 12.3 U/mg.

[8] = Effect of pH on lipase activity; format: biochemical

O=C(O)CI [iodo-acetate]
effect on the activity of the lipase (lipase of SEQ ID NO: 2 [1]): little effect
effect on the activity of the lipase (lipase of SEQ ID NO: 4): little effect

CCCCCCCCCCCC(=O)OCC(COC(=O)CCCCCCCCCCC)OC(=O)CCCCCCCCCCC [Trilaurin, Trilaurin (C12:0)]
Relative activity (lipase of SEQ ID NO: 2 [2]): 11
DG 1,2- 2,3- [3]: 6%
DG 1,3- [3]: 12%
FA (fatty acid) [3]: 2%
MG 1- 3- [3]: 22%
TG (remaining substrate) [3]: 58%

N=C(N)N [guanidine hydrochloride]
effect on the activity of the lipase (lipase of SEQ ID NO: 2 [1]): little effect
effect on the activity of the lipase (lipase of SEQ ID NO: 4): little effect

CC(C)(C)O [tert-butanol]
effect on the activity of the lipase (lipase of SEQ ID NO: 2 [4]): little effect

CCCCCCCC/C=C\CCCCCCCC(=O)OCCOCC(OCCO)C1OCC(OCCO)C1OCCO (stereo not shown) [Tween-80]
effect on activity after incubation (lipase): decreased the activity

CCCCCCCCCCCCOS(=O)(=O)[O-].[Na+] [SDS]
effect on activity after incubation (lipase): full enzyme inhibition

C[S+](C)[O-] [DMSO]
effect on the activity of the lipase (lipase of SEQ ID NO: 2 [4]): little effect

CC#N [acetonitrile]
effect on the activity of the lipase (lipase of SEQ ID NO: 2 [4]): little effect

CC(=O)Oc1ccc([N+](=O)[O-])cc1 [pNP-acetate, pNP-acetate (C2:0)]
Relative activity (lipase of SEQ ID NO: 2 [5]): 9

CCCCCCCCCC(=O)Oc1ccc([N+](=O)[O-])cc1 [pNP-caprate, pNP-caprate (C10:0)]
Relative activity (lipase of SEQ ID NO: 2 [5]): 100

CCO [ethanol]
effect on the activity of the lipase (lipase of SEQ ID NO: 2 [4]): little effect

CC(C)O [isopropanol]
effect on the activity of the lipase (lipase of SEQ ID NO: 2 [4]): little effect

CCCCCC(=O)Oc1ccc([N+](=O)[O-])cc1 [pNP-caproate, pNP-caproate (C6:0)]
Relative activity (lipase of SEQ ID NO: 2 [5]): 81

monopalmitoyl glycerols
hydrolysis of 1-positional ester bond lower in comparison with 2-positional ester bond (lipase of SEQ ID NO: 2 [6]): less than 2 fold

CCCCCCCCCCCCCCCCCC(=O)Oc1ccc([N+](=O)[O-])cc1 [pNP-stearate, pNP-stearate (C18:0)]
Relative activity (lipase of SEQ ID NO: 2 [5]): 8

O=S(=O)(F)Cc1ccccc1 [PMSF]
inactivation of the lipase (lipase of SEQ ID NO: 2 [1]): inactivated
inactivation of the lipase (lipase of SEQ ID NO: 4): inactivated

CCCCCCCCCCCCCC(=O)OCC(COC(=O)CCCCCCCCCCCCC)OC(=O)CCCCCCCCCCCCC [Trimyristin, Trimyristin (C14:0)]
Relative activity (lipase of SEQ ID NO: 2 [2]): 8
DG 1,2- 2,3- [3]: 2%
DG 1,3- [3]: 12%
FA (fatty acid) [3]: 1%
MG 1- 3- [3]: 19%
TG (remaining substrate) [3]: 66%

OCCS [b-mercaptoethanol]
effect on the activity of the lipase (lipase of SEQ ID NO: 2 [1]): little effect
effect on the activity of the lipase (lipase of SEQ ID NO: 4): little effect

O[C@@H](CS)[C@@H](O)CS [DTT]
effect on the activity of the lipase (lipase of SEQ ID NO: 2 [1]): little effect
effect on the activity of the lipase (lipase of SEQ ID NO: 4): little effect

Triton X-100
effect on activity after incubation (lipase): decreased the activity

CCCCCCCC(=O)Oc1ccc([N+](=O)[O-])cc1 [pNP-caprylate, pNP-caprylate (C8:0)]
Relative activity (lipase of SEQ ID NO: 2 [5]): 90

CN(C)C=O [dimethylformamide]
effect on the activity of the lipase (lipase of SEQ ID NO: 2 [4]): little effect

NC(N)=O [urea]
effect on the activity of the lipase (lipase of SEQ ID NO: 2 [1]): little effect
effect on the activity of the lipase (lipase of SEQ ID NO: 4): little effect

CCCCCCCCCCCCCCCC(=O)OCC(COC(=O)CCCCCCCCCCCCCCC)OC(=O)CCCCCCCCCCCCCCC [Tripalmitin, Tripalmitin (C16:0)]
Relative activity (lipase of SEQ ID NO: 2 [2]): 22
DG 1,2- 2,3- [3]: 1%
DG 1,3- [3]: 13%
FA (fatty acid) [3]: 3%
MG 1- 3- [3]: 18%
TG (remaining substrate) [3]: 65%

CO [methanol]
effect on the activity of the lipase (lipase of SEQ ID NO: 2 [4]): little effect

c1ccncc1 [pyridine]
effect on the activity of the lipase (lipase of SEQ ID NO: 2 [4]): little effect

NCCc1ccc(S(=O)(=O)F)cc1 [Pefablock]
inactivation of the lipase (lipase of SEQ ID NO: 2 [1]): inactivated
inactivation of the lipase (lipase of SEQ ID NO: 4): inactivated

CCCC(=O)Oc1ccc([N+](=O)[O-])cc1 [pNP-butyrate, pNP-butyrate (C4:0)]
Relative activity (lipase of SEQ ID NO: 2 [5]): 57

CC(C)=O [acetone]
effect on the activity of the lipase (lipase of SEQ ID NO: 2 [4]): little effect

CCCCCCCCCCCCCCCC(=O)Oc1ccc([N+](=O)[O-])cc1 [pNP-palmitate, pNP-palmitate (C16:0)]
Relative activity (lipase of SEQ ID NO: 2 [5]): 32

CCCCCCCCCCCC(=O)Oc1ccc([N+](=O)[O-])cc1 [pNP-laurate, pNP-laurate (C12:0)]
Relative activity (lipase of SEQ ID NO: 2 [5]): 84

Triolein (C18:1)
Relative activity (lipase of SEQ ID NO: 2 [2]): 12
DG 1,3- [3]: 18%
FA (fatty acid) [3]: 2%
MG 1- 3- [3]: 17%
TG (remaining substrate) [3]: 63%

CCCCCCCCCCCCCC(=O)Oc1ccc([N+](=O)[O-])cc1 [pNP-myristate, pNP-myristate (C14:0)]
Relative activity (lipase of SEQ ID NO: 2 [5]): 68

O=C(O)c1cc[c]([Hg][OH])cc1 [pHMB]
effect on the activity of the lipase (lipase of SEQ ID NO: 2 [1]): little effect
effect on the activity of the lipase (lipase of SEQ ID NO: 4): little effect

CCCCCCCCCCCCCCCCCC(=O)OCC(COC(=O)CCCCCCCCCCCCCCCCC)OC(=O)CCCCCCCCCCCCCCCCC [Tristearin, Tristearin (C18:0)]
Relative activity (lipase of SEQ ID NO: 2 [2]): 9
conversion ([3]; alcoholysis of triacylglycerol): 67%
DG 1,3- [3]: 48%
FA (fatty acid) [3]: 10%
MG 1- 3- [3]: 9%
TG (remaining substrate) [3]: 33%

B1: lipase of SEQ ID NO: 2: polypeptide having lipase activity from Thermoanaerobacter thermohydrosulfuricus DSM 7021 and T. brockii subsp. brockii DSM 1457 (protein, listed as Thermoanaerobacter thermohydrosulfuricus)
chain: MQKAVEITYNGKTLRGMMHLPDDVKGKVPMVIMFHGFTGNKVESHFIFVKMSRALEKVGIGSVRFDFYGSGESDGDFSEMTFSSELEDARQILKFVKEQPTTDPERIGLLGLSMGGAIAGIVAREYKDEIKALVLWAPAFNMPELIMNESVKQYGAIMEQLGFVDIGGHKLSKDFVEDISKLNIFELSKGYDKKVLIVHGTNDEAVEYKVSDRILKEVYGDNATRVTIENADHTFKSLEWEKKAIEESVEFFKKELLKG
specific activity of the purified lipase [7]: 12.3 U/mg
activity at pH 6.5-9.0 [8]: > 80%

B2: lipase of SEQ ID NO: 4: polypeptide having lipase activity from Caldanaerobacter subterraneus subsp. tengcongensis DSM 15242 (protein, listed as Thermoanaerobacter tencongensis)
chain: VQKAVEFTYNRKTLRGMLHLPEGVSEKVPMVVMFHGFTGNKVESHFIFVKMSRALEKVGIGSVRFDFYGSGESDGDFSEMTFSGELEDARQILDFVKRQPTTDVERIGLLGLSMGGAIAGIIARERKEDVKALVLWAPAFNMPELIMGEGARQYGAIMESLGYVDIGGLKLDRAFVEDIAKFNIFELSRGYEGKVLIVHGTNDEAVEYRISDRILQEVYGDNAFRVTIEGADHTFKNLEWERKAIEESVKFFERELKG
activity at pH 6.5-9.0 [8]: > 60%
